According to patent publication US7226623B2, “In vitro and in vivo anti-inflammatory effects of a sesquiterpene lactone extract from chicory (Cichorium intybus L.)” (Rutgers, The State University of New Jersey, priority 2005, dated 2007):

Tests used:
Wistar rats = test: Carrageenan-induced rat paw edema; format: in vivo; conditions: indomethacin (15 mg/kg)
Procedure: Groups of 5 adult male and female Wistar rats with body weights from 136 g to 170 g were used for this study. Rats were housed five animals per cage in a room kept at 24-26° C. and fed ad libitium. Before the experiment began, rat paw sizes were recorded by measuring paw volume three times on each animal using a plethysmometer (Ugo Basile, Comerio VA, Italy). The values were averaged to give a baseline paw size value. To start the experiment, animals were given a subcutaneous injection of 1% carrageenan (100 μl; Sigma, St. Louis, Mo.) in the area of the back paw to induce an acute inflammatory reaction (paw edema). One hour after carrageenan injection, rats were orally gavaged with chicory extract or vehicle control (4% apricot kernel balm). Paw size was measured at 3 hours, 5 hours, and 24 hours after injection. The increase in paw edema at each time point was determined by comparison with paw volume measured pre-injection. Inhibition of edema was calculated by comparison with vehicle control at the same time point.

BALB/c mice = test: Collagen induced arthritis (type II collagen mAbs with LPS challenge); format: in vivo; conditions: indomethacin 3 mg/kg oral
Procedure: Groups of 5 BALB/c mice weighing 25±2 g were used for this study. A 4 mg/mouse combination of 4 monoclonal antibodies (mAbs) against type II collagen (D8, F10, DI-2G, and A2; IBL Co., Japan) was administered to mice intravenously on day 0 of the study to induce an inflammatory reaction mimicking rheumatoid arthritis. On day 3 of the study, mice were given LPS ([…]) intravenously to potentiate the inflammatory effect. One hour after LPS administration, mice were dosed orally with chicory extract (200 mg/kg), indomethacin (3 mg/kg; Sigma, St. Louis, Mo.), or vehicle control (1% carboxymethylcellulose, CMC; Sigma, St. Louis, Mo.). Mice were dosed with chicory extract or vehicle for two more consecutive days. Volumes of both hind paws were measured using a plethysmometer on days 0, 5, 7, 10, 14, and 17. The increase in paw edema at each time point was determined by comparison with paw volume measured on day 0. Inhibition of edema was calculated by comparison with vehicle control at the same time point. This study was a GLP study (#1038342) performed by MDS Pharma Services (Taiwan).

[1] = test system: nitric oxide production by LPS-induced macrophages; test: Griess assay for NO production; format: cell-based, murine; conditions: aspirin 10 μM, LPS 1 μg/mL, 24 hours
Procedure: Down-regulation of various pro-inflammatory genes, including iNOS, IL1β and TNF-α, can reduce nitric oxide production by macrophages. In order to confirm that changes in pro-inflammatory gene expression were affecting cellular function, the Griess assay was performed to indirectly measure nitric oxide production by LPS-induced macrophages by measuring nitrite. For the assay, RAW cells were plated in a 96-well plate at a minimum density of 5×10^3 cells/well and grown for 24 hours. […] After 24 hours, conditioned media (50 μl) was removed and immediately mixed with 100 μl of Griess reagent ([…], 1% naphthalene-ethylenediamine dihydrochloride in 5% H3PO4). After incubation for 15 minutes at room temperature, the samples were read at 550 nm using a microplate spectrophotometer (Molecular Devices, Sunnyvale, Calif.). Data for each treatment were normalized based on results from an MTT cell proliferation assay.

In the case of `COc1ccc2c(c1)c(CC(=O)O)c(C)n2C(=O)c1ccc(Cl)cc1` [indomethacin], the “Rat Paw Edema, inhibition of edema vs vehicle control” value (Wistar rats; 3 h after carrageenan) is reported as 43%, the “Rat Paw Edema, inhibition of edema vs vehicle control” value (Wistar rats; 5 h after carrageenan) is reported as 36% and the “Rat Paw Edema, inhibition of edema vs vehicle control” value (Wistar rats; 24 h after carrageenan) is reported as 51%. For the same compound, the “Mouse arthritis % inhibition of edema” value (BALB/c mice; day 5) was 83%, the “Mouse arthritis % inhibition of edema” value (BALB/c mice; day 7) was 81% and the “Mouse arthritis % inhibition of edema” value (BALB/c mice; day 10) was 82%. For the same compound, the “Mouse arthritis % inhibition of edema” value (BALB/c mice; day 14) was 77% and the “Mouse arthritis % inhibition of edema” value (BALB/c mice; day 17) was 85%.

`CC(=O)Oc1ccccc1C(=O)O` [aspirin] was tested, and the “Griess assay % LPS control” value [1] was 69%.
